US20250375401A1, “PHARMACEUTICAL COMPOSITION CONTAINING DEMETHYLZEYLASTERAL FOR PREVENTION OR TREATMENT OF DISEASES CAUSED BY MUSCLE LOSS” (SEOUL NATIONAL UNIVERSITY R&DB FOUNDATION, priority 2022, published 2025)

Tests used:
myoblast cell line C2C12 [1] = assay: Myocyte differentiation in dexamethasone-induced cell model (total MHC immunofluorescence and DAPI staining); format: cell-based, mouse; details: C2C12 myotubes, 0.5 or 1 μM demethylzeylasteral with 100 μM dexamethasone
Procedure: dexamethasone-induced cell model, the following experiments were performed. Specifically, myoblast cell line C2C12 from mouse were seeded in 6 cm dishes and incubated for 72 hours. Then, the media were replaced to differentiation media to differentiate myoblasts into myotubes for 48 hours. After myotubes were formed, they were teated with 100 μM dexamethasone and 0.5, or 1 μM demethylzeylasteral for 72 hours while replacing the differentiation media every 24 hours. The differentiation media were suctioned off, and the dishes in which the cells were incubated were washed three times with PBS. Then, the cells were fixed with 4% formaldehyde, permeabilized with PBS containing 0.1% Triton-X 100 for 10 minutes, and blocked with PBS containing 3% bovine serum albumin for 1 hour. The cells were treated with total MHC antibodies, a biomarker for myocyte differentiation, followed by Alexa 488-conjugated secondary antibodies, and teated with DAPI for staining nuclei. The ratio of MHC+ nuclei to the total number of nuclei was calculated and plotted as a differentiation index, and the total number of nuclei stained with DAPI was also counted and plotted.

myoblast cell line C2C12 [2] = assay: Western blot of total MHC and MuRF-1 in dexamethasone-induced cell model; format: cell-based, mouse; details: C2C12 myotubes, 0.5 or 1 μM demethylzeylasteral with 100 μM dexamethasone, 48 hours, western blot (FIG. 5)
Procedure: Specifically, myoblast cell line C2C12 from mouse were seeded in 6 cm dishes and incubated for 72 hours.

C[C@@]1(C(=O)O)CC[C@]2(C)CC[C@]3(C)C4=CC(=O)c5c(cc(O)c(O)c5C=O)[C@]4(C)CC[C@@]3(C)[C@@H]2C1 [demethylzeylasteral, (2R,4aS,6aR,6aS,14aS,14bR)-9-formyl-10,11-dihydroxy-2,4a,6a,6a,14a-pentamethyl-8-oxo-1,3,4,5,6,13,14,14b-octahydropicene-2-carboxylic acid]
myocyte differentiation index (total number of MHC+ nuclei divided by total number of nuclei) (myoblast cell line C2C12 [1]; 72 hours (FIG. 3)): significantly increased and restored
number of nuclei (DAPI staining) (myoblast cell line C2C12 [1]; 72 hours (FIG. 4)): significantly increased
expression of MuRF-1 (biomarker for muscle degradation) (myoblast cell line C2C12 [2]): significantly reduced expression
expression of total MHC (biomarker for myocyte differentiation in late stage) (myoblast cell line C2C12 [2]): significantly increased expression
